Like-named read-outs stand apart in the source and are kept apart here. *1 amine or outer side, *2 acyl side, *3 side chain or, on linkers, in order; H or OH if unused. Where a SMILES comes first, the peptide text is derived from it. Bridges are numbered along the chain shown (N, C = ends). [ ]: non-standard residue; d: D form. The star is where a group is joined. 5FAM = O=C1OC2(c3ccc(O)cc3Oc3cc(O)ccc32)c2ccc(C(=O)*)cc21; Biphenyl(4,4'-CH2)2 = c1cc(-c2ccc(C[*:2])cc2)ccc1C[*:1]; Pro(trans-4-F) = O=C(O)[C@@H]1C[C@@H](F)CN1; Phe(4-Br) = N[C@@H](Cc1ccc(Br)cc1)C(=O)O; Phe(4-I) = N[C@@H](Cc1ccc(I)cc1)C(=O)O; Ahx = NCCCCCC(=O)O
Target: T1, Aurora-A122-403-C290A/C393A (Homo sapiens, UniProt O14965, C290A/C393A)
T1 construct: Human Aurora-A kinase domain 122-403 wild-type or C290A/ C393A mutant; His tag (pET30TEV vector) (N, cleaved yes); made in house; host or cells: E. coli RIL, co-expressed with lambda phosphatase (Aurora-A); tracer by solid phase synthesis
T1 sequence (O14965 122-403 C290A/C393A): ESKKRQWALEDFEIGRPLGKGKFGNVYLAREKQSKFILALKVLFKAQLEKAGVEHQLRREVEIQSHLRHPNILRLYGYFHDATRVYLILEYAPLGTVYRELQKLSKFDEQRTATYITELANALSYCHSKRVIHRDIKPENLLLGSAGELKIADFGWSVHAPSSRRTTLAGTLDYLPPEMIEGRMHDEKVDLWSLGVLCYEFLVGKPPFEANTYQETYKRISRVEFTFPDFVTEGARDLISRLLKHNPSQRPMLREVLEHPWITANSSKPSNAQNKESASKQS
Assay: FA direct binding assay (Aurora-A titrated into FAM-Ahx-labelled peptide)
Set-up: ΔG: unit not given here
Details: for ΔG: Table S6, from direct FA titration, n = 6
Description: Fluorescence anisotropy (FA) assays – General information.
All assays were performed using 384-well plates(Greiner Bio-one, UK). […]
produced as described previously.11 All samples were prepared in 25 mM Tris,150 mM NaCl, 5 mM MgCl2, […]
(PerkinElmer; Waltham, MA, USA).The parameters were set as follows: Excitation wavelength = 480 nm […]
Measured data were processed and analysed as previously described.12 Specifically, the perpendicular intensity (P) and parallel intensity (S) were subtracted by the control values and used for calculations of intensity and anisotropy using the following Equations 1, 2, 3, 4, and 5:
I= (2PG) + S Eq. (SI − 5)
r = (S − PG) Eq. (SI − 6)
L = r − r௠௜௡ Eq. (SI − 7)
y = (k + x + [FL]) − ඥ(k + x + [FL]2 − 4 ∗ x ∗ [FL]) Eq. (SI − 8)
y = r + r௠௜௡ − r௠௔௫ Eq. (SI − 9)
Where I = total intensity; P = perpendicular intensity; S = parallel intensity; G = instrument factor; r = anisotropy; Lb = ligand bound fraction; λ = change in intensity between bound and unbound states which […]
FA direct binding assays. […]
starting from 700 μM, diluted over 24 points in a 1/2 regime using the FAM-Ahx-labeled peptides at a final fixed concentration of 50 nM per well.

[1] = Table S6, direct FA titration, 50 nM fluorescein-labelled peptide, Tris buffer pH 7.5, mean ± SD, n = 6, read-out: Kd
[2] = 50 nM fluorescein-labelled peptide, mean ± SD

Row | Kd [1] [nM] | ΔG [2] | Kd (direct FA titration of Aurora-A122-403-C290A/C393A into 50 nM FAM-Ahx-labelled peptide, 25 mM Tris, 150 mM NaCl, 5 mM MgCl2, pH 7.5, 25 °C, mean ± SD, n = 3, read-out: Kd) [nM] | SMILES
1 | 900 ± 200 | -34.6 ± 0.6 | 800 ± 200 | CC(C)C[C@H](NC(=O)[C@@H](NC(=O)[C@@H]1CSCc2ccc(cc2)-c2ccc(cc2)CSC[C@H](NC(=O)[C@H](CCC(=O)O)NC(=O)[C@H](CCC(=O)O)NC(=O)[C@H](CCCCN)NC(=O)[C@H](CC(C)C)NC(=O)[C@H](CCC(=O)O)NC(=O)[C@H](CC(C)C)NC(=O)CCCCCNC(=O)c2ccc3c(c2)C(=O)OC32c3ccc(O)cc3Oc3cc(O)ccc32)C(=O)N[C@@H](Cc2ccc(I)cc2)C(=O)N[C@@H](CCCNC(=N)N)C(=O)N[C@@H](CC(=O)O)C(=O)N2C[C@H](F)C[C@H]2C(=O)N[C@@H](C)C(=O)N1)C(C)C)C(N)=O [FAM-Ahx-TACC3 518-532-S/E-Bph-IF/fP] ({5FAM-Ahx}-LELKEEC[Phe(4-I)]RD[Pro(trans-4-F)]ACVL-NH2; linker 7-13 via Biphenyl(4,4'-CH2)2)
2 | 620 ± 150 | -35.5 ± 0.6 | – | CC(C)C[C@H](NC(=O)[C@@H](NC(=O)[C@@H]1CSCc2ccc(cc2)-c2ccc(cc2)CSC[C@H](NC(=O)[C@H](CCC(=O)O)NC(=O)[C@H](CCC(=O)O)NC(=O)[C@H](CCCCN)NC(=O)[C@H](CC(C)C)NC(=O)[C@H](CCC(=O)O)NC(=O)[C@H](CC(C)C)NC(=O)CCCCCNC(=O)c2ccc3c(c2)C(=O)OC32c3ccc(O)cc3Oc3cc(O)ccc32)C(=O)N[C@@H](Cc2ccc(Br)cc2)C(=O)N[C@@H](CCCNC(=N)N)C(=O)N[C@@H](CC(=O)O)C(=O)N2C[C@H](F)C[C@H]2C(=O)N[C@@H](C)C(=O)N1)C(C)C)C(N)=O [FAM-Ahx-TACC3 518-532-S/E-Bph-BrF/fP] ({5FAM-Ahx}-LELKEEC[Phe(4-Br)]RD[Pro(trans-4-F)]ACVL-NH2; linker 7-13 via Biphenyl(4,4'-CH2)2)

Source: publication PMC11604048, “Constrained TACC3 peptidomimetics for a non-canonical protein–protein interface elucidate allosteric communication in Aurora-A kinase” (Chemical Science, 2024)
